Laboratory results reported in patent EP2875816A1, “N-(3-hydroxy-5,7-dimethyladamantan-1-yl)-2-(3-oxobenzo[d]isothiazol-2(3h)-yl)acetamide as a novel inhibitor for staphylococcus aureus sortase a” (Latvian Biomedical Research and Study Centre, priority 2013, dated 2015).
Values after ≈ are worked out from the molar mass of the structure shown.

Assays:
[1] = test system: NIH/3T3 mouse fibroblast cell line; assay: Cytotoxicity / cell growth inhibition, MTT test; format: cell-based; conditions: NIH3T3, 48 hours exposure, mean of three independent experiments ±SD
Protocol: The growth inhibitory effect of the newly synthesized compound was studied on NIH/3T3mouse fibroblast cell line. NIH/3T3 cells were seeded into 96-well microplates with initial density of 1x10^4 cells per well in DMEM culture medium with 10% FCS. After 24 hours of incubation, cells were exposed to a graded series of concentrations of chemical compounds for additional 48 hours. The cell medium was removed and 100 µl of fresh culture medium without phenol red and 1 mM MTT solution was added to each well. After 3 hours of incubation, an equal volume of 1% SDS-HCl solution was added and plates were incubated for additional 4 hours. Absorbance was measured at 570 nm and the data were fitted to a four parameter variable slope equation to determine the IC50 value.
The cytotoxic response is dependent on the cell line tested and NIH/3T3 mouse fibroblasts are a well-characterized cellular model used to study toxicity and drug delivery processes. In the table 3 data are given as the mean of three independent experiments ±SD.

SrtA = biological target: T1, SrtA (Staphylococcus aureus, UniProt Q2FV99); assay: Binding to SrtA monitored by 2D [15N,1H]-HSQC NMR spectroscopy, with dialysis; conditions: 2D 15N-1H HSQC spectrum unchanged after dialysis against NMR buffer
T1 construct: expressed with an N-terminal deletion of 59 amino acid residues (SrtAΔN59, residues 60-206); made in house
Text: • Fig. 1 - represents the binding of a selected inhibitor N-(adamantan-1-yl)-2-(3-oxo-2,3-dihydro-1,2-benzothiazol-2-yl)acetamide to SrtA monitored by 2D [^15N,^1H]-HSQC NMR spectroscopy. (a) Spectrum of SrtA in absence of inhibitor. […] (a) SrtA active site after modification by inhibitor. The inhibitor (in cyan) and near-by side chains of SrtA are shown with sticks and labeled. Side chains are colored according to their type: hydrophobic in yellow, negatively charged in red, positively charged in blue and hydrophilic in grey. Hydrogens are omitted for clarity. […] (c) Molecular surface representation of SrtA in complex with inhibitor. It can be seen in the figure that the inhibitor occupies almost all volume of the substrate pocket, the majority of interactions are hydrophobic and hydrogen bond is at the R139.
Determination of the complex structure of selected inhibitor and sortase enzyme was performed by using the nuclear magnetic resonance (NMR) spectroscopy methods. The collected NMR data allowed to specify the structure of inhibitory complexes.
To verify that the selected inhibitor can react with a cysteine thiol (such as the SrtA active site C 184) we performed a reaction with cysteine in the NMR tube and observed the formation of a covalent adduct (Figure 2). The chemical structure of the product was verified using proton 1D and 2D NMR methods.

Staphylococcus aureus = assay: Minimum inhibitory concentration (MIC), broth dilution micromethod; format: cell-based; conditions: 24 hours at 37 °C, complete inhibition of cell growth, OD 600 nm, read-out: MIC, S.aureus
Protocol: (§1) The MIC values of test compounds that inhibited cell growth of Gram-positive Staphylococcus aureus and S. epidermidis were determined by broth dilution micromethod. A series of solutions with a range from 0.1 µg/ml to 400 µg/ml were made in using a logarithmical phase culture with OD600 = 0.1 (corresponds to ~1.2 x 10^8 CFU/ml in 96-well plate standard. The plate was incubated at 37 °C for 24 hours and growth was assayed with a microplate reader by monitoring the absorption at 600 nm. All experiments were done in triplicate, and repeated three times.

S. epidermidis = assay: as above; format: cell-based; conditions: Staphylococcus epidermidis; 24 hours at 37 °C, complete inhibition of cell growth, OD 600 nm
Protocol: as §1

[2] = biological target: T2, S. aureus sortase A (SrtAΔN59, residues 60-206) (Staphylococcus aureus, UniProt Q2FV99); assay: SrtA enzyme FRET inhibition assay (dose-response, recombinant sortase A with FRET peptide substrate containing the LPETG motif); format: biochemical
T2 construct: expressed with an N-terminal deletion of 59 amino acid residues (SrtAΔN59, residues 60-206); made in house
Text: The catalytically active recombinant sortase A enzyme used for these studies was expressed with an N-terminal deletion of 59 amino acid residues (SrtAΔN59, residues 60-206). The first step included high-throughput screening of potent S. aereus SrtA inhibitors and selection of new antibacterial substances as sortase A inhibitors. In order to identify potent inhibitors of S. aureus sortase A, a high-throughput screening (HTS) of a diverse library of 50,000 drug-like low-molecular weight molecules was performed, which led to the identification of novel promising drug candidates.
These assays included determination of 50% SrtA inhibition concentration (IC50) of the newly synthesized derivative in dose-response experiments using the recombinant sortase
A enzyme incubated with FRET peptide substrate containing the LPETG motif, minimal inhibitory concentration (MIC) test with two staphylococcal species to measure the antimicrobial efficacy of the new inhibitory molecule, and toxicity test using a normal mouse embryonic fibroblasts cell line NIH/3T3 to determine the cell growth IC50 inhibitory concentration.
Values are means ±SD (n = 5).

| Compound | IC50 [1] [µg/mL] | Mode of binding to the active site of SrtA (SrtA) | MIC (Staphylococcus aureus) [µg/mL] | MIC (S. epidermidis) [µg/mL] | IC50 [2] [µM] |
| --- | --- | --- | --- | --- | --- |
| O=C(Cn1sc2ccccc2c1=O)NC12CC3CC(CC(C3)C1)C2 [N-(adamantan-1-yl)-2-(3-oxo-2,3-dihydro-1,2-benzothiazol-2-yl)acetamide] | 1.3 (≈ 3.8 µM) | irreversible binding | 1 (≈ 2.92 µM) | 0.5 (≈ 1.46 µM) |  |
| CC12CC3(C)CC(O)(C1)CC(NC(=O)Cn1sc4ccccc4c1=O)(C2)C3 [N-(3-hydroxy-5,7-dimethyladamantan-1-yl)-2-(3-oxobenzo[d]isothiazol-2(3H)-yl)acetamide] | 8.1 (≈ 21 µM) |  | 8 (≈ 20.7 µM) | 8 (≈ 20.7 µM) | 3.9 |
